Measurements reported in ChEMBL document CHEMBL4706771, “Discovery of Orally Bioavailable Ligand Efficient Quinazolindiones as Potent and Selective Tankyrases Inhibitors” (ACS Med Chem Lett, 2021).

Tests used:
[1] = Inhibition of Wnt/beta-catenin (unknown origin) expressed in human HEK293 cells expressing MSRII transfected with DNA-LF2K incubated for 24 hrs by luciferase reporter gene assay; settings: HEK293, 24 h
[2] = molecular target: T1, Poly [ADP-ribose] polymerase tankyrase-1 (Homo sapiens, UniProt O95271); assay: Inhibition of human TNKS1 incubated for 1 to 2 hrs by fluorescence polarization assay
T1 sequence (O95271 whole entry): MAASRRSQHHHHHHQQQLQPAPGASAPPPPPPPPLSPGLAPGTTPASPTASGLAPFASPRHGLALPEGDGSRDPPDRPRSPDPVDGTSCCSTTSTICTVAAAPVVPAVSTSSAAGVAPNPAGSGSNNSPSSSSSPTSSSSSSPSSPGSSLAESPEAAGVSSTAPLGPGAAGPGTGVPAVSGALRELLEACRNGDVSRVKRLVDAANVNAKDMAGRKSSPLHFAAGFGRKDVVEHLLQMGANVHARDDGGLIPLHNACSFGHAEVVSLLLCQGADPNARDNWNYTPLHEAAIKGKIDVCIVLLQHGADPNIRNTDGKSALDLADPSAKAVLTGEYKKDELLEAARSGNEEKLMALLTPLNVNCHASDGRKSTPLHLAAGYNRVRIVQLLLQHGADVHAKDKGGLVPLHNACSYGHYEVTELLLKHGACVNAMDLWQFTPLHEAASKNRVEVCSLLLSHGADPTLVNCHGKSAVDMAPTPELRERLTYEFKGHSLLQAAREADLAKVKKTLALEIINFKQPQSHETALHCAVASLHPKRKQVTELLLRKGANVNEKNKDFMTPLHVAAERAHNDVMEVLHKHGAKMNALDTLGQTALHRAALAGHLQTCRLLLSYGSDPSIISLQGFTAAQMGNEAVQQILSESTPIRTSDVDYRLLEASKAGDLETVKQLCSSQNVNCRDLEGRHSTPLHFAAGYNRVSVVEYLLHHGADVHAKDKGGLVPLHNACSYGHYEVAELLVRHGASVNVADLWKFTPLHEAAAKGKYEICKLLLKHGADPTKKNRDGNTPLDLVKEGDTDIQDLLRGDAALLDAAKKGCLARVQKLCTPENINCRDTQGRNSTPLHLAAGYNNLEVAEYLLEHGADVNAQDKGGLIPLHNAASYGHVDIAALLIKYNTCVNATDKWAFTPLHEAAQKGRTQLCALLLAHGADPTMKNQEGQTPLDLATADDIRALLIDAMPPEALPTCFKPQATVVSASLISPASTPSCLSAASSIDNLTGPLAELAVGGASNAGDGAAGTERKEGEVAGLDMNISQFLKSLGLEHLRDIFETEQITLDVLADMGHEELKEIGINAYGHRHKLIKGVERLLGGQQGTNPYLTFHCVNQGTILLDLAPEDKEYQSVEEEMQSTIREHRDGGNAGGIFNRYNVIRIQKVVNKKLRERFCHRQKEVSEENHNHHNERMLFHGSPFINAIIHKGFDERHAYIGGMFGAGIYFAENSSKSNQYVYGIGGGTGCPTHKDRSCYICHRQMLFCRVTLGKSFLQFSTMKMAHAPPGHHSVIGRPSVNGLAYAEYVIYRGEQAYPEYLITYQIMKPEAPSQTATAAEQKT

[3] = molecular target: T2, Poly [ADP-ribose] polymerase tankyrase-2 (Homo sapiens, UniProt Q9H2K2); assay: Inhibition of human TNKS2 incubated for 1 to 2 hrs by fluorescence polarization assay
T2 sequence (Q9H2K2 whole entry): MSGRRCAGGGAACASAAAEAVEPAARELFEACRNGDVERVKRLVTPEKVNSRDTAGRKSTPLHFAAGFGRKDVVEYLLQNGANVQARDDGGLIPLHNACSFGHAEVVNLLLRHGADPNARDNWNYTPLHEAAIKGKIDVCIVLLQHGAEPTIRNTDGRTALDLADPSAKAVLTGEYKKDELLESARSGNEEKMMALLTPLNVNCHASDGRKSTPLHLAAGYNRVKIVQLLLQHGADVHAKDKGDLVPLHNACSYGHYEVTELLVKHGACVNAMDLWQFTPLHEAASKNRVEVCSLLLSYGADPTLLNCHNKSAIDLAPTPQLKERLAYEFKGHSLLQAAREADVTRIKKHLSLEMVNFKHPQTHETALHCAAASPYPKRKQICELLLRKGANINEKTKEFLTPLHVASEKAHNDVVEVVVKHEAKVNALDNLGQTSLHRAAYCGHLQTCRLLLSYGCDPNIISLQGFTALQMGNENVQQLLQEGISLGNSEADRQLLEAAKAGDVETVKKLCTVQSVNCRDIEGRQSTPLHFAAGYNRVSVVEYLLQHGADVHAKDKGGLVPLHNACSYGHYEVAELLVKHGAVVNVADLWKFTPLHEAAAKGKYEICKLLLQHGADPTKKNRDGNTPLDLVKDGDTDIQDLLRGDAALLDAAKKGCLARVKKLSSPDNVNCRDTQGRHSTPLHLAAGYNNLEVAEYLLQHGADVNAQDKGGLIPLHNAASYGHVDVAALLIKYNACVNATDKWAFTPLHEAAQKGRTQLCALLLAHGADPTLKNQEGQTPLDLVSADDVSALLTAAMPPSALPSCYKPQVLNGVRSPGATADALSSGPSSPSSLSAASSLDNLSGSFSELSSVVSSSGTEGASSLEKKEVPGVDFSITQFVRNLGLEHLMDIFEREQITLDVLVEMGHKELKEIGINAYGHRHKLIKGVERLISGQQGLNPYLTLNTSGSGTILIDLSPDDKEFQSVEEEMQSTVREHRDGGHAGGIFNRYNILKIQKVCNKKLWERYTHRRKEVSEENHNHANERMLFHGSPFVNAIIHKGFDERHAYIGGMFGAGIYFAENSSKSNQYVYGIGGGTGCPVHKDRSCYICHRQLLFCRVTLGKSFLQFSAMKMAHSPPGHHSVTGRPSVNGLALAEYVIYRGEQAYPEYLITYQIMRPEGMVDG

[4] = Clearance in Sprague-Dawley rat at 0.5 mg/kg, iv; type: ADME, organism-based; settings: in vivo
[5] = Volume of distribution in Sprague-Dawley rat at 0.5 mg/kg, iv; type: ADME, organism-based; settings: in vivo
[6] = Half life in Sprague-Dawley rat at 0.5 mg/kg, iv; type: ADME, organism-based; settings: in vivo
[7] = Half life in Sprague-Dawley rat at 10 mg/kg, po or 0.5 mg/kg, iv; type: ADME, organism-based; settings: in vivo
[8] = Oral bioavailability in Sprague-Dawley rat at 10 mg/kg; type: ADME, organism-based; settings: in vivo
[9] = Clearance in Sprague-Dawley rat at 10 mg/kg, po or 0.5 mg/kg, iv; type: ADME, organism-based; settings: in vivo
[10] = Dose normalised AUC in Sprague-Dawley rat at 10 mg/kg, po; type: ADME, organism-based; settings: in vivo
[11] = Volume of distribution in Sprague-Dawley rat at 10 mg/kg, po or 0.5 mg/kg, iv; type: ADME, organism-based; settings: in vivo
[12] = Volume of distribution in Sprague-Dawley rat at 5 mg/kg, po or 2 mg/kg, iv; type: ADME, organism-based; settings: in vivo
[13] = Oral bioavailability in Sprague-Dawley rat at 5 mg/kg; type: ADME, organism-based; settings: in vivo
[14] = Dose normalised AUC in Sprague-Dawley rat at 5 mg/kg, po; type: ADME, organism-based; settings: in vivo
[15] = Half life in Sprague-Dawley rat at 5 mg/kg, po or 2 mg/kg, iv; type: ADME, organism-based; settings: in vivo
[16] = Clearance in Sprague-Dawley rat at 5 mg/kg, po or 2 mg/kg, iv; type: ADME, organism-based; settings: in vivo

Row | IC50 [1] | IC50 [2] | Structure (SMILES) | also measured
1 | 10 nM | 3.2 nM | Cc1cccc2c1c(=O)n(C[C@H]1CC[C@H](C(=O)Nc3ccncc3)CC1)c(=O)n2Cc1ccccc1C#N | 
2 | 15.8 nM | 4 nM | N#Cc1c(Cn2c(=O)n(C[C@H]3CC[C@H](C(=O)Nc4ccncc4)CC3)c(=O)c3c(F)cccc32)cccc1C(F)(F)F | 
3 | 15.8 nM | 3.2 nM | Cc1c(F)ccc2c1c(=O)n(C[C@H]1CC[C@H](C(=O)Nc3ccncc3)CC1)c(=O)n2Cc1cccc(C(F)(F)F)c1C#N | 
4 | 20 nM | 8.1 nM | COc1cccc2c1c(=O)n(C[C@H]1CC[C@H](C(=O)O)CC1)c(=O)n2Cc1cccc(C(F)(F)F)c1C#N | 
5 | 63.1 nM | 15.8 nM | N#Cc1c(Cn2c(=O)n(C[C@H]3CC[C@H](C(=O)O)CC3)c(=O)c3c(Cl)cccc32)cccc1C(F)(F)F | 
6 | 63.1 nM | 25.1 nM | Cc1c(C(N)=O)ccc2c1c(=O)n(C[C@H]1CC[C@H](C(=O)Nc3ccncc3)CC1)c(=O)n2Cc1cccc(C(F)(F)F)c1C#N | 
7 | 31.6 nM | 2.5 nM | Cc1cccc2c1c(=O)n(C[C@H]1CC[C@H](C(=O)Nc3ccnnc3)CC1)c(=O)n2Cc1cccc(C(F)(F)F)c1C#N | 
8 | > 5000 nM | 631 nM | N#Cc1ccccc1Cn1c(=O)n(C[C@H]2CC[C@H](C(=O)NCc3ccccc3)CC2)c(=O)c2ccccc21 | IC50 [3]: 7940 nM
9 | 31.6 nM | 2 nM | Cc1cccc(Cn2c(=O)n(C[C@H]3CC[C@H](C(=O)Nc4ccncc4)CC3)c(=O)c3c(C)cccc32)c1C#N | 
10 | 6.3 nM | 2 nM | Cc1cccc2c1c(=O)n(C[C@H]1CC[C@H](C(=O)Nc3ccncc3)CC1)c(=O)n2Cc1cccc(Cl)c1C#N | clearance [4]: 45.9 mL/min/kg; Vd [5]: 2.1 L/kg; half-life [6]: 37.2 min
11 | 79.4 nM | 126 nM | N#Cc1ccccc1Cn1c(=O)n(C[C@H]2CC[C@H](C(=O)Nc3ccncc3)CC2)c(=O)c2ncccc21 | 
12 | 25.1 nM | 6.3 nM | Cc1ccc2c(c1C)c(=O)n(C[C@H]1CC[C@H](C(=O)Nc3ccncc3)CC1)c(=O)n2Cc1cccc(C(F)(F)F)c1C#N | 
13 | 15.8 nM | 4 nM | Cc1ccc(NC(=O)[C@H]2CC[C@H](Cn3c(=O)c4c(C)cccc4n(Cc4cccc(C(F)(F)F)c4C#N)c3=O)CC2)cn1 | 
14 | 25.1 nM | 63.1 nM | N#Cc1ccccc1Cn1c(=O)n(C[C@H]2CC[C@H](C(=O)Nc3ccncc3)CC2)c(=O)c2ccncc21 | 
15 | 6.3 nM | 3.2 nM | N#Cc1c(Cn2c(=O)n(C[C@H]3CC[C@H](C(=O)Nc4ccncc4)CC3)c(=O)c3c(Cl)cccc32)cccc1C(F)(F)F | 
16 | 251 nM | 100 nM | N#Cc1ccccc1Cn1c(=O)n(C[C@H]2CC[C@H](C(=O)Nc3ccncc3)CC2)c(=O)c2nc[nH]c21 | 
17 | 6.3 nM | 4 nM | N#Cc1ccccc1Cn1c(=O)n(C[C@H]2CC[C@H](C(=O)Nc3ccncc3)CC2)c(=O)c2ccccc21 | half-life [7]: 43.2 min; bioavailability [8]: 3.6%; clearance [9]: 91.2 mL/min/kg; AUC/dose [10]: 37.7 ng·h/mL; Vd [11]: 4.42 L/kg
18 | 63.1 nM | 39.8 nM | N#Cc1c(Cn2c(=O)n(C[C@H]3CC[C@H](C(=O)O)CC3)c(=O)c3c(F)cccc32)cccc1C(F)(F)F | 
19 | 251 nM | 15.8 nM | Cc1ccc2c(c1C)c(=O)n(C[C@H]1CC[C@H](C(=O)O)CC1)c(=O)n2Cc1cccc(C(F)(F)F)c1C#N | 
20 | 10 nM | 2.5 nM | Cc1cccc2c1c(=O)n(C[C@H]1CC[C@H](C(=O)Nc3cnn(C)c3)CC1)c(=O)n2Cc1cccc(C(F)(F)F)c1C#N | 
21 | 20 nM |  | Cc1c(F)ccc2c1c(=O)n(C[C@H]1CC[C@H](C(=O)O)CC1)c(=O)n2Cc1cccc(C(F)(F)F)c1C#N | 
22 | 39.8 nM | 3.2 nM | Cc1cccc2c1c(=O)n(C[C@H]1CC[C@H](C(=O)Nc3ccncc3)CC1)c(=O)n2Cc1cccc(C(F)(F)F)c1C#N | 
23 | 12.6 nM | 4 nM | COc1cccc2c1c(=O)n(C[C@H]1CC[C@H](C(=O)Nc3ccncc3)CC1)c(=O)n2Cc1cccc(C(F)(F)F)c1C#N | 
24 | 12.6 nM | 2 nM | N#Cc1c(Cn2c(=O)n(C[C@H]3CC[C@H](C(=O)Nc4ccncc4)CC3)c(=O)c3ccccc32)cccc1C(F)(F)F | 
25 | 63.1 nM |  | N#Cc1c(Cn2c(=O)n(C[C@H]3CC[C@H](C(=O)O)CC3)c(=O)c3ccccc32)cccc1C(F)(F)F | Vd [12]: 0.81 L/kg; bioavailability [13]: 14.5%; AUC/dose [14]: 1293 ng·h/mL; half-life [15]: 312 min; clearance [16]: 1.88 mL/min/kg
